Source: US20200085831A1, “NASAL COMPOSITIONS STIMULATING CILIARY ACTIVITY” (Innotesto BVBA, priority 2013, published 2020)

Tests used:
ciliated cells = experiment: In vitro experiments with ciliated cells (ascorbic acid); assay type: cell-based; details: several in vitro experiments
Method: When ascorbic acid is added to the present disclosure composition, the pH of the final composition should be adapted to values between about 6-8 and preferably between about pH 7-7.5 by adding a small amount of sodium bicarbonate or other pH regulating agents.

[1] = adult population, Nawrot et al. 2003, cited from earlier work

SMILES | effect on the ciliary beat frequency (ciliated cells) | daily intake not associated with adverse effects [1] [mg per day] | daily intake not associated with adverse effects, per bodyweight ([1]; equivalent of the mg per day level)
O=C1O[C@H]([C@@H](O)CO)C(O)=C1O [ascorbic acid] | increases the ciliary beat frequency | – | –
Cn1c(=O)c2c(ncn2C)n(C)c1=O [Caffeine, 1,3,7-trimethylxanthine] | – | < 400 | about 6 mg/kg bodyweight
